Measured values published in ChEMBL document CHEMBL1201862, “PubChem BioAssay data set” (2004).
Active and inactive are the calls of the source.

Columns and labels:
[1] = viability of HCT116 lacking mutant beta-catenin – cell-based, human colon tumor, dose response (AID 1045); assay type: functional;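 further: HCT116 colon tumor cells with beta catenin knocked out; cells exposed to compound for 60 hours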
[2] = biological target: G-protein coupled receptor 55 (Homo sapiens, UniProt Q9Y2T6); experiment: selective activators of receptor GPR55 – imaging, U2OS cells, beta-arrestin-GFP redistribution, primary screen (AID 1961); assay type: functional
[3] = viability of PTEN-deleted HCT116 cells – cell-based, HCT116 PTEN knockout, dose response (AID 1047); assay type: functional;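 further: HCT116 colon tumor cells with PTEN knocked out; cells exposed to compound for 60 hours before readout; potency for loss of cell viability measured by luminescence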
Estrogen receptor = biological target: T1, Estrogen receptor (Homo sapiens, UniProt P03372);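 further: potency for inhibiting coactivator peptide recruitment to the receptor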
T1 sequence (P03372 whole entry): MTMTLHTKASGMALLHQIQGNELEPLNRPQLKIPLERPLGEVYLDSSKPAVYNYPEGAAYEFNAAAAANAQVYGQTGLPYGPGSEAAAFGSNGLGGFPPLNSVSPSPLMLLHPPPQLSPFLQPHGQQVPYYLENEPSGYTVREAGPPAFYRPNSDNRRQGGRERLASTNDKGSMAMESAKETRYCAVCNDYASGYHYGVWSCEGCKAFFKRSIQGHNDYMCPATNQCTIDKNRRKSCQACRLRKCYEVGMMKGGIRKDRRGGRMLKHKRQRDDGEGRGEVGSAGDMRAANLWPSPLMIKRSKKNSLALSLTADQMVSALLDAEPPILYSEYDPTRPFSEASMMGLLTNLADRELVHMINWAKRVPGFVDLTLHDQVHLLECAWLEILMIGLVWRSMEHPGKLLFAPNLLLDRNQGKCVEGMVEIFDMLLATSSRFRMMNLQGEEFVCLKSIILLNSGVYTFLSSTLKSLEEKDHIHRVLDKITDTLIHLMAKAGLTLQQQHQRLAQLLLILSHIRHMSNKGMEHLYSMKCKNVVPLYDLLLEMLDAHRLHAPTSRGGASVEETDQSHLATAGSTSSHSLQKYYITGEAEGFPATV

[4] = biological target: Mitogen-activated protein kinase 10 (Homo sapiens, UniProt P53779); experiment: Dose response biochemical screening assay for inhibitors of c-Jun N-Terminal Kinase 3 (JNK3). [Related pubchem assays: 746 ]
Integrin alpha-L = Integrin alpha-L (Mus musculus, UniProt P24063); experiment: modulators of CD8 T cell-vesicle binding, dose response, powder samples, mouse 2C CD8+ cells (AID 504565); assay type: functional
T-cell = experiment: loss of vesicle association with mouse CD8+ T cells – mouse 2C CD8+ T cells, flow cytometry, dose response (AID 485284); assay type: functional
[5] = biological target: Alkaline phosphatase, placental type (Homo sapiens, UniProt P05187); experiment: human placental alkaline phosphatase inhibition – biochemical, luminescence, confirmation (AID 1512); assay type: functional
[6] = biological target: T2, Alkaline phosphatase, tissue-nonspecific isozyme (Homo sapiens, UniProt P05186); experiment: potency against alkaline phosphatase TNAP – biochemical, luminescent, dose response, SAR follow-up (AID 1056)
T2 sequence (P05186 whole entry): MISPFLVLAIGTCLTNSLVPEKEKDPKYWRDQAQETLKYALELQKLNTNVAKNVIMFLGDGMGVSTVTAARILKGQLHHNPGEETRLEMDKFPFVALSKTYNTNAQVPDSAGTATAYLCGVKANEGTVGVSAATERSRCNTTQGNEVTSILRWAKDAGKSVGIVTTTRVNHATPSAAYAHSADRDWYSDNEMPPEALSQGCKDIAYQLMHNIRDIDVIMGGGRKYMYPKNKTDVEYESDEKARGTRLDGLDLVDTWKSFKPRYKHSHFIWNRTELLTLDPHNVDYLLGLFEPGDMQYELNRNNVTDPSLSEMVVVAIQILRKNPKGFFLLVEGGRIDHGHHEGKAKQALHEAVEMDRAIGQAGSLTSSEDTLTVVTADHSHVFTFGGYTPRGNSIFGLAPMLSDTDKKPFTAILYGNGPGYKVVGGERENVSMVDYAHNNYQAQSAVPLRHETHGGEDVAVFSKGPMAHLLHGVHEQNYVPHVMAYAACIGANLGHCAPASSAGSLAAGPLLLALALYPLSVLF

HEK293 [7] = experiment: cells; assay type: functional, cell-based; details: Homo sapiens
[8] = Trypanosoma cruzi growth suppression in host cells – NIH3T3 host cells, beta-gal luminescence, confirmation (AID 2044); assay type: functional, cell-based;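 further: intracellular parasites grown in NIH/3T3 mouse fibroblasts as host cells; luminescent beta-galactosidase reporter signal from transgenic T. cruzi replicating inside host cells; inhibitors lower the luminescence signal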
HEK293 [9] = experiment: NOD2 signaling inhibitors in MDP-stimulated cells, cell-based, uHTS, luminescence (AID 2001); assay type: functional; details: Homo sapiens
[10] = biological target: Neurotensin receptor type 1 (Homo sapiens, UniProt P30989); assay type: functional;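 further: Image-based confirmatory dose-response assay measuring agonist activity at NTR1; NTR1-expressing U2OS osteosarcoma cells imaged for beta-arrestin GFP spot formation; agonist potency where compounds increase beta-arrestin recruitment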
HEK293 [11] = experiment: inhibition of NOD1-driven NF-kB reporter – cell-based, luminescence, uHTS, primary screen (AID 1578); assay type: functional; details: Homo sapiens
[12] = Luminescence Cell-Based Dose Retest to Confirm Inhibitors of Cancer Stem Cells. [Related pubchem assays (depositor defined):AID2717, AID2721]; assay type: functional; details: Homo sapiens
HEK293 [13] = experiment: cells; assay type: functional, cell-based; details: Homo sapiens; remark: listed apart in the source
HEK293 [14] = experiment: cells; assay type: functional, cell-based; details: Homo sapiens; remark: listed apart in the source
INS1 = experiment: INS-1E survival protection against cytokine death – cell-based, luminescence, retest, dose response (AID 449756); assay type: functional; details: Rattus norvegicus;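 further: cell death triggered by IL-1 beta plus TNF-alpha plus IFN-gamma mixture; protective hits raise ATP signal compared with cytokine alone wells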
[15] = biological target: Nucleotide-binding oligomerization domain-containing protein 2 (Homo sapiens, UniProt Q9HC29); experiment: inhibition of NOD2-driven NF-kB reporter – cell-based, luminescence, uHTS, HEK293 (AID 1566); assay type: functional
Chain of Nucleotide-binding oligomerization domain-containing protein 2 (Q9HC29 whole entry, the tested form may be a part): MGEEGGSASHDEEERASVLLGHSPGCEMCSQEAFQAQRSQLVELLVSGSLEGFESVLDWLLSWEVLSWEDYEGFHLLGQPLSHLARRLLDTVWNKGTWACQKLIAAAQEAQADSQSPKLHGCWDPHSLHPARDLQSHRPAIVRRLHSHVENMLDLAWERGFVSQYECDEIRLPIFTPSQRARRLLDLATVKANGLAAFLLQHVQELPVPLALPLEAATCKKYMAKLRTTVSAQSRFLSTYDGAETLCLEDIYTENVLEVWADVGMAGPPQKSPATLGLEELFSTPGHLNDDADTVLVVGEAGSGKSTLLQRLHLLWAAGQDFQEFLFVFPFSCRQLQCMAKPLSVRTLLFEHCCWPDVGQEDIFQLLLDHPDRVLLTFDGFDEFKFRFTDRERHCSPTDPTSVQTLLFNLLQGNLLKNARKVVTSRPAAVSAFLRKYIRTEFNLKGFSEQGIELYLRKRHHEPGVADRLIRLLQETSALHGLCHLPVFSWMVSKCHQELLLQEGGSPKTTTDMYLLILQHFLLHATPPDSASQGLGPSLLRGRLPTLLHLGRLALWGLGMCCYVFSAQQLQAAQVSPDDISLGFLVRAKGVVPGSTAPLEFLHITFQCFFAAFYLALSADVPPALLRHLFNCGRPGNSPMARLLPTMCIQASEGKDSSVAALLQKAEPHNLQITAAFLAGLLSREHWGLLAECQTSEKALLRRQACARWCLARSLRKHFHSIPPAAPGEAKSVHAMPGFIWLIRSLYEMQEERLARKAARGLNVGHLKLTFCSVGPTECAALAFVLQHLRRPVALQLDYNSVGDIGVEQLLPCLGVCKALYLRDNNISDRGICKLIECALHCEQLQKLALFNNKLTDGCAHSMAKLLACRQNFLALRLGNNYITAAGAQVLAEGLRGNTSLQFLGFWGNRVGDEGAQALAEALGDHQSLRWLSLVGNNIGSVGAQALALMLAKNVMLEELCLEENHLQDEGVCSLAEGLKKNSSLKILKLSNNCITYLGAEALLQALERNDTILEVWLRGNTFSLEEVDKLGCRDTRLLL

Chain of Alkaline phosphatase, placental type (P05187 whole entry): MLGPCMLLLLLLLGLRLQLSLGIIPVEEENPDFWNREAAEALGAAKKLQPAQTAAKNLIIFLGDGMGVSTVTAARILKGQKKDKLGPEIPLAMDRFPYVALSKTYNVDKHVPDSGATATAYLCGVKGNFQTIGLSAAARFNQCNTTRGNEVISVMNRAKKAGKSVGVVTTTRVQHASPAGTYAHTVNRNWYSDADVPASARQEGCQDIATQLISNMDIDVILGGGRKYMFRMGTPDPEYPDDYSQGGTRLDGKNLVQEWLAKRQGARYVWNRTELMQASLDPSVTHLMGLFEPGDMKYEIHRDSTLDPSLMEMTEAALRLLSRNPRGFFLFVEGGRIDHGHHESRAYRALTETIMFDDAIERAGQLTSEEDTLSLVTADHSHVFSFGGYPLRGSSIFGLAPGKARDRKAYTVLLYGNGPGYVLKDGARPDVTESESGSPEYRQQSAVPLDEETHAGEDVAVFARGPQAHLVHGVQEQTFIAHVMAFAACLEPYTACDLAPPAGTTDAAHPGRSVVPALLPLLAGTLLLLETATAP
Chain of G-protein coupled receptor 55 (Q9Y2T6 whole entry): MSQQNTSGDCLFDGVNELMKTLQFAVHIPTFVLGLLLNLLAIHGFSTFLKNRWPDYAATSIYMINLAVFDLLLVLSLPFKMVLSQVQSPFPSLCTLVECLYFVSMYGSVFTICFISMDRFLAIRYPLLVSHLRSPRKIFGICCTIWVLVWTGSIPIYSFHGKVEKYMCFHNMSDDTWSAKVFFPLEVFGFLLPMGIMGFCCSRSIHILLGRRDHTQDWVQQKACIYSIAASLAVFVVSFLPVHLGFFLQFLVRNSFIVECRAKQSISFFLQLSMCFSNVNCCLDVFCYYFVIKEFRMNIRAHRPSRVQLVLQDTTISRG
Chain of Mitogen-activated protein kinase 10 (P53779 whole entry): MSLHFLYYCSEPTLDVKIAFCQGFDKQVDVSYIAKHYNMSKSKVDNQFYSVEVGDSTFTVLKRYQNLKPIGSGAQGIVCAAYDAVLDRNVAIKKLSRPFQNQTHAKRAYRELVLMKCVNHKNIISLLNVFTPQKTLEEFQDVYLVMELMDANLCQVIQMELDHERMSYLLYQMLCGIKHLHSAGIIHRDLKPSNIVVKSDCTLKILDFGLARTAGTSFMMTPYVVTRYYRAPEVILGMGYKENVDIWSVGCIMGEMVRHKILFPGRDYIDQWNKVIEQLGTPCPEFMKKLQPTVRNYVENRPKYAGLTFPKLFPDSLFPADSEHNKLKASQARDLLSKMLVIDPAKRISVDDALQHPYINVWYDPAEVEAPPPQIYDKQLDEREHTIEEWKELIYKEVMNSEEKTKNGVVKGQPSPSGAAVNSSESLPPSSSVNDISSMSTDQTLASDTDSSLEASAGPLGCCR
Chain of Integrin alpha-L (P24063 whole entry): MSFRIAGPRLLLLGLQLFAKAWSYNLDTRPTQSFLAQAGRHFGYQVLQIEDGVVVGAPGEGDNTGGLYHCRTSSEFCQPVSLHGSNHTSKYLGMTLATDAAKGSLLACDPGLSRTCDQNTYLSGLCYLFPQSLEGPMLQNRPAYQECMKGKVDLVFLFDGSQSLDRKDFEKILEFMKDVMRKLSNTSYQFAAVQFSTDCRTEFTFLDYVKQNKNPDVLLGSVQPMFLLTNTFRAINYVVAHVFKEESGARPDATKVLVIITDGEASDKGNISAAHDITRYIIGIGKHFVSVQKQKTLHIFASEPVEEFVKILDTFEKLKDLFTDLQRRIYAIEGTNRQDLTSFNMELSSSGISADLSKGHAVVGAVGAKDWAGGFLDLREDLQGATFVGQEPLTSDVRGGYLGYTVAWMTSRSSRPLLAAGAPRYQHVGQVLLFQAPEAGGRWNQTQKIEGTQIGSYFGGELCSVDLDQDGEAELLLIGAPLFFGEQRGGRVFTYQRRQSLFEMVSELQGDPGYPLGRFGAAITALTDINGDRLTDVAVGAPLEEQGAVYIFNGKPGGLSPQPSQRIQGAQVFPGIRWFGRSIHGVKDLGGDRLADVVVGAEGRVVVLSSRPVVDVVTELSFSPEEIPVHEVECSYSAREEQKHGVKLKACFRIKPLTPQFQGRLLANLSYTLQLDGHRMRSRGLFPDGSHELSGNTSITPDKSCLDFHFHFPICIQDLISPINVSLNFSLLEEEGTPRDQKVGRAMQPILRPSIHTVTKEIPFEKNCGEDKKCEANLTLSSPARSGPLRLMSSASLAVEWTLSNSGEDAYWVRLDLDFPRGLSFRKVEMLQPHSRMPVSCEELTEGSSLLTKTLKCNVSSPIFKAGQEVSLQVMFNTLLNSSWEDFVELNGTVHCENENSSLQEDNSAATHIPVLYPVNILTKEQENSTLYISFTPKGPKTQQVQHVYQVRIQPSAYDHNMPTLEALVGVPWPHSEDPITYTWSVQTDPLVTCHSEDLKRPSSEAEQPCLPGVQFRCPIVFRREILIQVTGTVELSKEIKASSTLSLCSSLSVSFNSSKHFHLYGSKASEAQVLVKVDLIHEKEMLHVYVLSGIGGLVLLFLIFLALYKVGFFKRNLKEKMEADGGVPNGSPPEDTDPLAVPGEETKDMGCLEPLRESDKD
Chain of Neurotensin receptor type 1 (P30989 whole entry): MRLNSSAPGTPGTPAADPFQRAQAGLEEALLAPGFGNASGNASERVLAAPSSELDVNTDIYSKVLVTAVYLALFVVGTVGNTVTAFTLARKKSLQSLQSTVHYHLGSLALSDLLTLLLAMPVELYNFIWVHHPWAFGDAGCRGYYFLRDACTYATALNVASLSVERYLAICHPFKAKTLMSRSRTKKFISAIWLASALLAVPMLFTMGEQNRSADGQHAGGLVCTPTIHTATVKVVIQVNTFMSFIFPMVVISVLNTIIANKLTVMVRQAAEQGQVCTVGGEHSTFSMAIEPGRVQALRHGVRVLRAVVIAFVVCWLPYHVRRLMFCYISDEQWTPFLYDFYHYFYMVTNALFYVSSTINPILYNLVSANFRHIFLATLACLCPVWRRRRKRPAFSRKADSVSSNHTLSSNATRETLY

CCc1nnc2n1N=C(c1ccc(-c3cc(Cl)ccc3Cl)o1)CS2
EC50 [1]: 95.9 µM (active) | EC50 [2]: 734 nM (active) | EC50 [3]: 27.1 µM (active) | IC50 (Estrogen receptor): 44 µM (not active)

CCOc1ccc(-c2nc(N)ncc2-c2ccccc2)c(O)c1
IC50 [4]: 12.7 µM (not active) | EC50 (Integrin alpha-L): 173 nM (active) | EC50 (T-cell): 25.8 µM (inactive)

O=C(Cn1ccnc1)c1ccc(O)c(O)c1
IC50 [5]: 5.37 µM (active) | IC50 [6]: > 100 µM (inactive)

O=C(/C(=C/c1cccc(Cl)c1)c1nc2ccccc2[nH]1)c1ccccc1
IC50 (HEK293 [7]): > 20 µM (inactive) | EC50 [1]: 3.7 µM (active) | EC50 [8]: 755 nM (active) | IC50 (HEK293 [9]): 3.14 µM (active) | EC50 [10]: 8.48 µM (active) | EC50 (HEK293 [11]): > 20 µM (inactive) | AC50 [12]: 1.97 µM (active) | IC50 (HEK293 [13]): 13.4 µM (active) | IC50 (HEK293 [14]): 1.63 µM (active) | AC50 (INS1): 4.22 µM (active) | EC50 [3]: 3.93 µM (active) | EC50 [15]: > 20 µM (inactive)
